Source: patent publication US7459480B2, “Benzodioxepine derivatives” (Hoffmann-La Roche Inc., priority 2003, dated 2008)

Target: T1, human ACCβ (Homo sapiens, UniProt O00763)
T1 construct: The cloning of the full length human muscle-type ACCβ cDNA and expression in HEK293 cells; made in house; host or cells: HEK293 cells (ATCC CRL-1573), transfected with plasmid pRF33D
Test: Radiometric ACCβ enzyme inhibition assay ([14C]NaHCO3 incorporation into malonyl-CoA)
Format: biochemical
Details: human muscle-type ACCβ expressed in HEK293 cells; saturating substrate concentrations; 37° C., 45 min
Method: Production and Characterization of Human ACCβ Enzyme, Its Use in ACC Activity Assays and for Inhibition Studies
The cloning of the full length human muscle-type ACCβ cDNA and expression in HEK293 cells (ATCC, # CRL-1573) was performed as follows. The ACCβ cDNA was amplified by the polymerase chain reaction (PCR) and was cloned using standard recombinant DNA techniques. The PCR reaction was performed with the Expand Long Template PCR System (Roche Molecular Biochemicals, # 1 681 8340) and 0.5 ng of cDNA from human skeletal muscle as template. The primers used for PCR amplification were designed on the basis of the published sequence of the human ACCβ cDNA isolated from a human liver cDNA library (Abul-Elheiga et al. J. Biol. Chem. 272, 10669-10677, 1997). The sequence of the forward primer ACCB1 was 5′-[…]-3′; it includes a NheI restriction cleavage site for subcloning and a Kozak translation initiation consensus sequence preceding the ATG start codon. The sequence of the reverse primer ACCB8 was 5′-[…]-3′; it includes a stop codon and a XhoI restriction cleavage site for subcloning. The amplified DNA fragment of approximately 7.4 kb was cloned into a mammalian expression vector. The resulting plasmid isolates, pRF33A, B, C, D, and E were individually transfected in human embryonic kidney 293 cells (HEK293) using a standard lipid transfection method. Cell extracts of transfected cells were prepared in a lysis buffer containing 0.4 mg/ml digitonin and enzyme activity was determined using a radiometric ACC activity assay as described below. Plasmid pRF33D gave the highest activity and was chosen for large scale transfections of HEK293 cells and enzyme purification.
Since ACC enzyme activities in crude cell lysates were very low, enrichment of ACCβ enzyme expressed in HEK293 cells was achieved by a single anion exchange chromatography step. Cell lysates were run over a 5 ml Econo Pac High Q column (Bio-Rad, # 732-0027). Bound proteins were eluted by a gradient of NaCl from 0 to 1 M in 50 mM Tris-HCl, pH 7.5, 1 mM DTT, 5% glycerol. Fractions containing high ACCβ enzyme activity were pooled and stored at −20° C.
Standard ACCβ enzyme assays, in a total volume of 100 μl, contained 50 mM HEPES-KOH, pH 7.5, 10 mM K-citrate, 10 mM MgSO4, 1 mM ATP, 0.1 mM DTT, 2% DMSO, 0.1 mg/ml fatty acid-free BSA, 0.2 mM acetyl-CoA, 2 mM KHCO3, 0.2 mM [^14C]NaHCO3 (50-60 mCi/mmol) and cell lysate or purified ACCβ enzyme. Reactions were incubated at 37° C. for 45 min. and stopped by the addition of 50 μl of 2 N HCl. Terminated reactions were incubated at 50° C. over night to evaporate non-incorporated [^14C]NaHCO3. [^14C]-labeled malonyl-CoA reaction product was quantitated by liquid scintillation counting after the addition of 20 μl of Microscint 20 (Canberra Packard, # 6013621) on a TopCount NXT microplate scintillation counter (Canberra Packard).
Inhibition of ACCβ activity was determined at saturating substrate concentrations with two-fold serial dilutions of test compounds spanning a concentration range of at least two log units. IC50 values were calculated with the GraFit software (Erithacus Software Ltd.).

T1 sequence (O00763 whole entry): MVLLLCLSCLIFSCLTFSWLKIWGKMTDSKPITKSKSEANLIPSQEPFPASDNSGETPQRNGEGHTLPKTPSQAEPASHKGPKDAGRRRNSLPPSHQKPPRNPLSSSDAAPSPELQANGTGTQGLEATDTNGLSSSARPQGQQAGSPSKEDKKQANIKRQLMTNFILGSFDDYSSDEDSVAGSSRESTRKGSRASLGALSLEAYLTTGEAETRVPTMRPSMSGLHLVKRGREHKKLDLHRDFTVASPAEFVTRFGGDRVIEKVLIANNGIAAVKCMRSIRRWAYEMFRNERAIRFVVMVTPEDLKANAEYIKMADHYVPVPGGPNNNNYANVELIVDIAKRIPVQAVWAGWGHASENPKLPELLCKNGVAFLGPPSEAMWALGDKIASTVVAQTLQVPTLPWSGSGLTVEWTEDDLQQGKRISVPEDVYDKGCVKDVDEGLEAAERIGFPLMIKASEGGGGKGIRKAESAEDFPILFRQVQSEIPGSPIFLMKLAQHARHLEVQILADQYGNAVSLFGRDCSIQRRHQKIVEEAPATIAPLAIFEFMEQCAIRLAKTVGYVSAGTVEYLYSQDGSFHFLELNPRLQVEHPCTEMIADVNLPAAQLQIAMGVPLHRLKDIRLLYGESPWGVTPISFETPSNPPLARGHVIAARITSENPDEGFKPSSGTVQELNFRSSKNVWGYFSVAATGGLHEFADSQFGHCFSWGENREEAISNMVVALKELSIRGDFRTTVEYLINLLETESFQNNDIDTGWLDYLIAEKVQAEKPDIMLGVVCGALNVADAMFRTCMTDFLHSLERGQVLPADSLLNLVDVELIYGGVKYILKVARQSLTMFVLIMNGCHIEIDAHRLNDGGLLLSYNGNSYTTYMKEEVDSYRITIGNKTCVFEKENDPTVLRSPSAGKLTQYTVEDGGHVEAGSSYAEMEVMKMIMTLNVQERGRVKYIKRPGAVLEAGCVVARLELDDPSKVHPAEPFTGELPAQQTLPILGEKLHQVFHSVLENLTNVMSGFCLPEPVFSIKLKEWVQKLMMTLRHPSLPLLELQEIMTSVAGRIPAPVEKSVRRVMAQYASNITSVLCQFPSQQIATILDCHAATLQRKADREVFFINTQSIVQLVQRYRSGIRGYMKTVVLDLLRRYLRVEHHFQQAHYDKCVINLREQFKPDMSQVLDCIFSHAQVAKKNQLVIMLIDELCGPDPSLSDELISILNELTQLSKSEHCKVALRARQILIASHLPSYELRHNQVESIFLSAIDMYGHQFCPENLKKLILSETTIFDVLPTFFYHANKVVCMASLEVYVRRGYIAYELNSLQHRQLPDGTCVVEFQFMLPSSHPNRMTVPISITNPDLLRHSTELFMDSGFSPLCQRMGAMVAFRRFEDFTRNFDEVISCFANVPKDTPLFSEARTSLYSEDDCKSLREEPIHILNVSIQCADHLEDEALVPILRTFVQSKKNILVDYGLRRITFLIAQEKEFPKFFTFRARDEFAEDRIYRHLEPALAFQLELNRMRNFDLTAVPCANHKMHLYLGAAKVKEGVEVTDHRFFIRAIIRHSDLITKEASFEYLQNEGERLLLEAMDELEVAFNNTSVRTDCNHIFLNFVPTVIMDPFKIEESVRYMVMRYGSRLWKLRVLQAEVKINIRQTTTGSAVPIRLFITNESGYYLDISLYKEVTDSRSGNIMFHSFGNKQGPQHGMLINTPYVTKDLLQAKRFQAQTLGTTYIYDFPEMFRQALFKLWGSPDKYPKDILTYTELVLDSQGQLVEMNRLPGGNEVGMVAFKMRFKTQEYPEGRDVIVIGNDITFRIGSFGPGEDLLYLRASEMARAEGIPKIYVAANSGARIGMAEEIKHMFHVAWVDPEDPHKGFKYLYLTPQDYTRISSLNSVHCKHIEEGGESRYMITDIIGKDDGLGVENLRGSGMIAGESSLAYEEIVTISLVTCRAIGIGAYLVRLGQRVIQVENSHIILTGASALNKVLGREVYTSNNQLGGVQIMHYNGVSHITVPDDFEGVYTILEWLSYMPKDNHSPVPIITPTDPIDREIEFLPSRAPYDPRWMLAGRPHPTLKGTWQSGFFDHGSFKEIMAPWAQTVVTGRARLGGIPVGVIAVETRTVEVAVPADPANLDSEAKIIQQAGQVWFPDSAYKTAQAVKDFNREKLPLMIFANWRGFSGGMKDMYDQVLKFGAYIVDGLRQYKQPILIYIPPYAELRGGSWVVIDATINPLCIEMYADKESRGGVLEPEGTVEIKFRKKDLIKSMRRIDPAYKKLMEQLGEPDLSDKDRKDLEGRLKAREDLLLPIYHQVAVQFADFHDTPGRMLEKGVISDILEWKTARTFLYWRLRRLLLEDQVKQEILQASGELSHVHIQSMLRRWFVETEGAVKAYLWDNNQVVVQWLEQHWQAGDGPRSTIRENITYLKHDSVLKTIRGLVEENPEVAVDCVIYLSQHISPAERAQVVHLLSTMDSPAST

For CCOC(=O)c1cccc(C#Cc2ccc3c(c2)OCC(C)(C)CO3)c1 [Example 15, 3-(3,3-Dimethyl-3,4-dihydro-2H-benzo[b][1,4]dioxepin-7-ylethynyl)-benzoic acid ethyl ester], the IC50 was 3.11 µM.

CCCOc1ccc(C#Cc2ccc3c(c2)OCC(C)(C)CO3)cc1 [Example 21, 3,3-Dimethyl-7-(4-propoxy-phenylethynyl)-3,4-dihydro-2H-benzo[b][1,4]dioxepine] gave an IC50 of 0.01 µM.

Work on Cn1nnc(-c2ccc(C#Cc3ccc4c(c3)OCC(C)(C)CO4)cc2)n1 [Example 14, 5-[4-(3,3-Dimethyl-3,4-dihydro-2H-benzo[b][1,4]dioxepin-7-ylethynyl)-phenyl]-2-methyl-2H-tetrazole] yielded an IC50 of 11.2 µM.

In the case of CCOC(=O)c1ccc(C#Cc2ccc3c(c2)OCC(C)(C)CO3)cn1 [Example 13, 5-(3,3-Dimethyl-3,4-dihydro-2H-benzo[b][1,4]dioxepin-7-ylethynyl)-pyridine-2-carboxylic acid ethyl ester], the IC50 is reported as 5.41 µM.

With CC1(C)COc2ccc(C#Cc3ccc4c(c3)CCO4)cc2OC1 [Example 9, 7-(2,3-Dihydro-benzofuran-5-ylethynyl)-3,3-dimethyl-3,4-dihydro-2H-benzo[b][1,4]dioxepine] the IC50 was 15.1 µM.

CCOC(=O)c1ccc(OCc2ccc3c(c2)OCC(C)(C)CO3)cc1 [Example 23, 4-(3,3-Dimethyl-3,4-dihydro-2H-benzo[b][1,4]dioxepin-7-ylmethoxy)-benzoic acid ethyl ester] showed an IC50 of 0.25 µM.

In the case of COc1cccc(C#Cc2ccc3c(c2)OCC(C)(C)CO3)c1 [Example 5, 7-(3-Methoxy-phenylethynyl)-3,3-dimethyl-3,4-dihydro-2H-benzo[b][1,4]dioxepine], the IC50 is reported as 42.2 µM.

Work on CCOc1ccc(C#Cc2ccc3c(c2)OCC(C)(C)CO3)cc1 [Example 7, 7-(4-Ethoxy-phenylethynyl)-3,3-dimethyl-3,4-dihydro-2H-benzo[b][1,4]dioxepine] yielded an IC50 of 1.44 µM.
